Legend:
[1] = Solubility of compound A under crystallization conditions with varying amounts of TsOH.H2O (Test Example 1); format: physicochemical; settings: ethanol having a water content of 10%, 10° C.
Protocol: The ordinate depicts the solubility (mg/ml) of compound A, and the abscissa depicts the molar equivalent of p-toluenesulfonic acid monohydrate (vs. compound B).
The solubility of compound A was determined using varying amounts of TsOH.H2O under conditions for crystallizing compound A (ethanol having a water content of 10%, 10° C.). Specifically, compound A, compound B, and TsOH.H2O were added in the combinations shown below to 10 ml of ethanol having a water content of 10%. The resulting slurry was stirred at 10° C., and crystals were collected by filtration. Then, the content of the compound A contained in the filtered mother liquor was measured by HPLC (column: Shiseido CAPCELL PAK CN UG120 (4.6×250 mm), column temperature: 40° C., flow rate: 1.0 ml/min., mobile phase: acetonitrile:0.02 M phosphate buffer (pH 7.0)=30:70).

[2] = Stability of compound B under dissolution conditions with varying amounts of TsOH.H2O (Test Example 2); format: physicochemical; settings: ethanol having a water content of 30%, 70° C.
Protocol: FIG. 2 depicts time-dependent (hr; abscissa) change in the amount of compound B (%; ordinate) with the initial (0 hr) amount of compound B defined as 100%.
The stability of compound B was determined using varying amounts of TsOH.H2O under conditions for dissolving compound B in a solvent (ethanol having a water content of 30%, 70° C.). Specifically, 7 ml of ethanol having a water content of 30% and TsOH.H2O were added in combinations shown below to 1.0 g of compound B, followed by dissolution at 70° C. The content of the compound B was measured at constant time intervals by HPLC (column: Shiseido CAPCELL PAK CN UG120 (4.6×250 mm), column temperature: 40° C., flow rate: 1.0 ml/min., mobile phase: acetonitrile:0.02 M phosphate buffer (pH 7.0)=30:70).

SMILES	solubility of compound A ([1]; TsOH.H2O larger than 1.00 molar equivalent with respect to compound B)	solubility of compound A ([1]; TsOH.H2O smaller than 1.00 molar equivalent with respect to compound B)	decomposition of compound B (decrease in compound B content) ([2]; TsOH.H2O at less than 1.0 molar equivalent (vs. compound B))	decomposition of compound B (decrease in compound B content) ([2]; TsOH.H2O at more than 1.0 molar equivalent (vs. compound B))
CN1CCc2nc(C(=O)N[C@@H]3C[C@@H](C(=O)N(C)C)CC[C@@H]3NC(=O)C(=O)Nc3ccc(Cl)cn3)sc2C1.Cc1ccc(S(=O)(=O)O)cc1.O [compound A, N^1-(5-chloropyridin-2-yl)-N^2-((1S,2R,4S)-4-[(dimethylamino)carbonyl]-2-{[(5-methyl-4,5,6,7-tetrahydrothiazolo[5,4-c]pyridin-2-yl)carbonyl]amino}cyclohexyl)ethanediamide p-toluenesulfonic acid monohydrate]	reduced	increased	–	–
CN1CCc2nc(C(=O)N[C@@H]3C[C@@H](C(=O)N(C)C)CC[C@@H]3NC(=O)C(=O)Nc3ccc(Cl)cn3)sc2C1 [compound B, N^1-(5-chloropyridin-2-yl)-N^2-((1S,2R,4S)-4-[(dimethylamino)carbonyl]-2-{[(5-methyl-4,5,6,7-tetrahydrothiazolo[5,4-c]pyridin-2-yl)carbonyl]amino}cyclohexyl)ethanediamide]	–	–	suppressed	promoted with the excess
